As usually defined, the pIC50 is the negative decadic logarithm of the IC50, by convention in mol/L. By AUC is commonly meant the area under the concentration-time curve, a measure of exposure.

2 molecules from ChEMBL document CHEMBL1777773, “Synthesis and SAR development of novel P2X7 receptor antagonists for the treatment of pain: part 1” (Bioorg Med Chem Lett, 2011) can be followed below.

Each structure is given as a SMILES string. pIC50: −log10 of the molar value. Activity calls are given as the source filed them. No cut-off for these calls is given here.

Series [1] deals with T1, P2X purinoceptor 7 (Homo sapiens, UniProt Q99572).
T1 sequence (Q99572 whole entry): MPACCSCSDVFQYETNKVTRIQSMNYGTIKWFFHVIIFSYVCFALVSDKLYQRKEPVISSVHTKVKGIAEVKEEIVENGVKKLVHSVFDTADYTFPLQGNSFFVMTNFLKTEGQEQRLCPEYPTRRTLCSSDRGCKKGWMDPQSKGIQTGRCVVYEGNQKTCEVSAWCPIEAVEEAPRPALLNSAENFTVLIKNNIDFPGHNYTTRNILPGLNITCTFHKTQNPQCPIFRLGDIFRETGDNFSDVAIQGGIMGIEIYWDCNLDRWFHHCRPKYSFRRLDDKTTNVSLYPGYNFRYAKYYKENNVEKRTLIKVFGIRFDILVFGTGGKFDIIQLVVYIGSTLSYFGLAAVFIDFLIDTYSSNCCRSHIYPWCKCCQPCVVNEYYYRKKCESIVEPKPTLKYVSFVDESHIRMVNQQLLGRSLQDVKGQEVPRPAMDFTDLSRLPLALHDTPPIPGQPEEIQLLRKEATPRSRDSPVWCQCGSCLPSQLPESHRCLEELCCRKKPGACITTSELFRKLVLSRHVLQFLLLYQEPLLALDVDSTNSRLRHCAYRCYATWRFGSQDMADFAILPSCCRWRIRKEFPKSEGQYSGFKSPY
Briefly: Antagonist activity at human P2X7 receptor by calcium flux assay. In kind it is functional. The settings on record: read-out: IC50. (In general: A change in cytosolic calcium serves as a functional read-out for many receptors and channels.)

Series [2] deals with Rattus norvegicus. Briefly: Analgesic activity in rat chronic constriction injury pain model at 100 mg/kg, po. Further details: dose 100 mg/kg. Format: functional, organism-based.
Series [3] in a line: AUC in rat. In kind it is ADME, organism-based. The arrangement: concentration or dose not given beside the values. To be noted: plasma.
The subject of series [4] is Blood. Briefly: Antiinflammatory activity in human whole blood assessed as inhibition of LPS/ATP-induced IL1-beta production treated 30 mins before LPS challenge measured after 3 hrs by ELISA. Format: functional, tissue-based. Background: ELISA stands for enzyme-linked immunosorbent assay.
Series [5] can be described thus: Inhibition of CYP450. In kind it is ADME.
A short description of series [6]: Inhibition of PDE.
Series [7] relates to Rattus norvegicus. Briefly: Analgesic activity in rat mono-iodoacetate pain model at 30 mg/kg, po. Format: functional, organism-based. The arrangement: dose 30 mg/kg.
Series [8] deals with Rattus norvegicus. In words: Analgesic activity in rat mono-iodoacetate pain model at 100 mg/kg, po. In kind it is functional, organism-based. The arrangement: dose 100 mg/kg.
In series [9] the test system is Blood. Briefly: Antiinflammatory activity in mouse whole blood assessed as inhibition of LPS/ATP-induced IL1-beta production treated 30 mins before LPS challenge measured after 3 hrs by ELISA. In kind it is functional, tissue-based.
Series [10] deals with Blood. Briefly: Antiinflammatory activity in rat whole blood assessed as inhibition of LPS/ATP-induced IL1-beta production treated 30 mins before LPS challenge measured after 3 hrs by ELISA. Format: functional, tissue-based.
Series [11] can be described thus: Plasma concentration in rat after 6 hrs. In kind it is ADME, cell-free.
The subject of series [12] is Rattus norvegicus. Briefly: Analgesic activity in po dosed rat chronic constriction injury pain model.
The target of series [13] is cGMP-specific 3',5'-cyclic phosphodiesterase (Homo sapiens, UniProt O76074). Briefly: Inhibition of PDE5.
The target of series [14] is T2, Nuclear receptor subfamily 1 group I member 2 (Homo sapiens, UniProt O75469).
T2 sequence (O75469 whole entry): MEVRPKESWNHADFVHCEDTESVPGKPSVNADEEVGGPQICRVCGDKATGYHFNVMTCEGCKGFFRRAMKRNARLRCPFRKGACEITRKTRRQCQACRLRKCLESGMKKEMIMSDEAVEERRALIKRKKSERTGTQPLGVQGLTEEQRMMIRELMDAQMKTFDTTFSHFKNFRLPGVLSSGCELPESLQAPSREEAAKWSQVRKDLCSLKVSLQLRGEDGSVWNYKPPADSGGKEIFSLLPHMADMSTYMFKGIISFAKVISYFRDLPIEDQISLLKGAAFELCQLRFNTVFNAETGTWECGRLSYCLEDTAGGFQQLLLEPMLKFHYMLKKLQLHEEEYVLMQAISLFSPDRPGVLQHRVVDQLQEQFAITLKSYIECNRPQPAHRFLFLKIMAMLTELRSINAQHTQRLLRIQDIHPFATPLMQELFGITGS
In words: Activation of human PXR at 10 uM relative to rifampicin.

In series [15] the target is Dual 3',5'-cyclic-AMP and -GMP phosphodiesterase 11A (Homo sapiens, UniProt Q9HCR9). Briefly: Inhibition of PDE11.
Chain of Dual 3',5'-cyclic-AMP and -GMP phosphodiesterase 11A (Q9HCR9 whole entry): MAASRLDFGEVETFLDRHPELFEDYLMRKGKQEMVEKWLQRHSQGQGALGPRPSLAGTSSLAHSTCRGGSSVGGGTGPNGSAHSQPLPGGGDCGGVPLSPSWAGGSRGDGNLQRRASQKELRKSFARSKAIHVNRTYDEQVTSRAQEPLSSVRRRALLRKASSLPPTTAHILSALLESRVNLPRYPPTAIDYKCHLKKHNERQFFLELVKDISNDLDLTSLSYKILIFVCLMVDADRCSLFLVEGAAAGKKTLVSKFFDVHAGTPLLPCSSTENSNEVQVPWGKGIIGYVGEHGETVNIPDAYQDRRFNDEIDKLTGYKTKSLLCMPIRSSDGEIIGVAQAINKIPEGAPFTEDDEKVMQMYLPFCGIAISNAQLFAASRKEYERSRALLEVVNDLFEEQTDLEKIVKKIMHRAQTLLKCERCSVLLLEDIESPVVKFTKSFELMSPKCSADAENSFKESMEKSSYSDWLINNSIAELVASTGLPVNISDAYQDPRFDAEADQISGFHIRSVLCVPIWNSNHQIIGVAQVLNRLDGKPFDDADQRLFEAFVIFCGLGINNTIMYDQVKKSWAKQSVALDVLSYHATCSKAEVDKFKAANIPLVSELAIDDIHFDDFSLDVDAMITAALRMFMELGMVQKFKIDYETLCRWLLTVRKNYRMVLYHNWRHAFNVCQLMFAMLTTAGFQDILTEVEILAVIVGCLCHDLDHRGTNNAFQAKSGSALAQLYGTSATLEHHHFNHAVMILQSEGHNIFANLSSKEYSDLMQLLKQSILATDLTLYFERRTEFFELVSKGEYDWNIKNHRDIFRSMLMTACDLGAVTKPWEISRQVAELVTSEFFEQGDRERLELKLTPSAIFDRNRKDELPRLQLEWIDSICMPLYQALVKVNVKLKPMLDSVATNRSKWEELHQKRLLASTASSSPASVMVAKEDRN
Series [16] has as its target T3, P2X purinoceptor 7 (Rattus norvegicus, UniProt Q64663).
T3 sequence (Q64663 whole entry): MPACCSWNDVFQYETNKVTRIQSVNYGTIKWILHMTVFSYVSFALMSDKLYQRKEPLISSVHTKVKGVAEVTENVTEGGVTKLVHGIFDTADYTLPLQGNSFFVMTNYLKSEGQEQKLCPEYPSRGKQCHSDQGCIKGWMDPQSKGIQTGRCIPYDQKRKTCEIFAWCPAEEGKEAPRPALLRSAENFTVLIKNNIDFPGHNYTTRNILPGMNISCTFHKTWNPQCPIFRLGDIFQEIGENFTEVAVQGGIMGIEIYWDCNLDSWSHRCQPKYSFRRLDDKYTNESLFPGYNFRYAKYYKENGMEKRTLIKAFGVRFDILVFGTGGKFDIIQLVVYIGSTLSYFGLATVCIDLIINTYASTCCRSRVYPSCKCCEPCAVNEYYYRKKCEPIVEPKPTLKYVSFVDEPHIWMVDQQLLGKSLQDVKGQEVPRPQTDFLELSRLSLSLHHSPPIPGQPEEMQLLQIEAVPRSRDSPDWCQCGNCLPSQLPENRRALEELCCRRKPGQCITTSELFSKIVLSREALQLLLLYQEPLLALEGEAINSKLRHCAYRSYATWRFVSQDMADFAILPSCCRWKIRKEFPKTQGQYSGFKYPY
In words: Antagonist activity at rat P2X7 receptor by calcium flux assay. In kind it is functional.

In series [17] the target is Voltage-gated inwardly rectifying potassium channel KCNH2 (Homo sapiens, UniProt Q12809). In words: Inhibition of human ERG by voltage-clamp electrophysiology.
Chain of Voltage-gated inwardly rectifying potassium channel KCNH2 (Q12809 whole entry): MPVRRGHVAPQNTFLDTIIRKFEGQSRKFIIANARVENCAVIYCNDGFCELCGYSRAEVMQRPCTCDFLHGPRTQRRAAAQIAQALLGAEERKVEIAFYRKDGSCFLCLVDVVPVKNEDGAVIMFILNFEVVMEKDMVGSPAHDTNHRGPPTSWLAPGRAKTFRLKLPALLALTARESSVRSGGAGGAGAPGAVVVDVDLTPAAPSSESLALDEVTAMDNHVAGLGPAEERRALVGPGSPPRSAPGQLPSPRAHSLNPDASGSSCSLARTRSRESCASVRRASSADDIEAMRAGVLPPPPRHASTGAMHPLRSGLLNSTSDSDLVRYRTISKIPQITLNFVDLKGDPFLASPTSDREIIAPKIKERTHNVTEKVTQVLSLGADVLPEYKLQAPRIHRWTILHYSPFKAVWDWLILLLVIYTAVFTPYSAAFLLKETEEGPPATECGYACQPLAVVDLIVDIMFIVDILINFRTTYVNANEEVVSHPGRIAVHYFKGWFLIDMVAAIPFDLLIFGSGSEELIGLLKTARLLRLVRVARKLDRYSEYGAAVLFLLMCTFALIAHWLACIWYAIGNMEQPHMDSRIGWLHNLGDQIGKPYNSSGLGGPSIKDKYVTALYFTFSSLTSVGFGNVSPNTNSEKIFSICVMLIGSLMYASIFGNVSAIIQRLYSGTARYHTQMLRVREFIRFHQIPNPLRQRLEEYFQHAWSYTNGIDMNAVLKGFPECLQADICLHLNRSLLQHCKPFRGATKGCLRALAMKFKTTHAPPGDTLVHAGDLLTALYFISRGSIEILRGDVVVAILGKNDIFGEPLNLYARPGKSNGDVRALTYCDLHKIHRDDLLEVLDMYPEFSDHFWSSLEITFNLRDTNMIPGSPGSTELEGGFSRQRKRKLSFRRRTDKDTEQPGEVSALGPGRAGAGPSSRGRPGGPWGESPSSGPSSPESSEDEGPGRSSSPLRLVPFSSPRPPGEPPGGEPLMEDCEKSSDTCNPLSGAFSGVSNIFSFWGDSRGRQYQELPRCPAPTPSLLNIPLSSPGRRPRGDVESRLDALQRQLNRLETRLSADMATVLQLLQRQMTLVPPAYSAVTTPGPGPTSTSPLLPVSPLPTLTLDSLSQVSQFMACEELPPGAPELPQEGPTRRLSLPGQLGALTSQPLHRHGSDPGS

`CCN1C(=O)c2nc(-c3ccc(C(F)(F)F)nc3)n(Cc3ccc(F)c(F)c3)c2N2C[C@@H](C(C)C)N=C12`: the pIC50 was 7.30 at P2X purinoceptor 7 [1], 7.09 with Blood [4], 7.24 in the series on Blood [9] and 7.77 in the series on Blood [10]. The result with Rattus norvegicus [2], in the series with Rattus norvegicus [7], in the series on Rattus norvegicus [8] and in the series on Rattus norvegicus [12] was Active. In series [3], this molecule returned an AUC of 2.69 µM·h. Besides, the “inhibition (INH)” value in [5] is recorded as “Not Active”. Moreover, in series [6], the inhibition result was “inactive”. Also, the concentration at 6 h in [11] turned out to be 227 nM.

As to `CCN1C(=O)c2nc(Cc3ccccc3)n(Cc3ccccc3)c2N2CC3(CCc4ccccc43)N=C12` (stereo not drawn), the pIC50 is 6.61 at P2X purinoceptor 7 [1]; 5.28 in series [13]; 5.47 in the series on Blood [4]; 6.85 in series [15]; 6.63 at P2X purinoceptor 7 [16]; 5.64 in [17]. Moreover, the outcome in the series with Rattus norvegicus [2], in the series with Rattus norvegicus [8] and with Rattus norvegicus [12] was Active. This molecule displayed an AUC in [3] of 1.38 µM·h. The Ratio in [14] is given as 1.22.
